We go through eight compounds from US6352966B1, “Cleansing bars” (Albemarle Corporation, priority 2000, dated 2002).

Common to all, as to assay type: physicochemical
The nature of series [1]: Surface tension in ionic buffer solution. Conditions: 0.02 normal aqueous potassium nitrate solution at 25° C. The text has this:
Also shown in Table 1 are the corresponding values for the partially neutralized monosodium salts of the corresponding alk(en)yl succinic acids.

The nature of series [2]: Bar hardness of cleansing bars. The following applies: the higher the hardness, the more desirable. As to the method:
(§1) The desirable properties of cleansing bars formed from fully neutralized sodium salts of various alkenyl succinic acids of this invention were determined in a further series of comparative tests. In these tests both the reflectance and the bar hardness were determined. In addition to testing bars of five different fully neutralized succinate salts of this invention, the same properties were measured on four fully compounded commercial soap bars from different well-known soap manufacturers. As can be appreciated, the higher the reflectance the whiter the bar, and the higher the hardness, the more desirable is the bar. In Table 2, the five fully neutralized alkenyl succinic acids are identified in terms of the number of carbon atoms in the alkenyl group. Thus, for example, C6 SAS represents the fully neutralized disodium salt of n-hexenyl succinic acid. As regards reflectance, Commercial Bar B is pink in color, and Commercial Bar C is a coral-orange in color. The other two commercial bars are white.

Series [3] can be described thus: Reflectance of cleansing bars. Conditions: bar; the higher the reflectance the whiter the bar. As to the method:
as §1

`CCCCCCCCCCC(CC(=O)[O-])C(=O)[O-].[Na+].[Na+]` (stereo not drawn) [Disodium n-decylsuccinate]: the surface tension in series [1] is listed as 26 millinewtons per meter. The same measure, in the same setting: with `CCCCCCCCC(CC(=O)[O-])C(=O)[O-].[Na+].[Na+]` (stereo not drawn) [Disodium n-octylsuccinate] the figure was 26 millinewtons per meter; with `CCCCCCCCCCC(CC(=O)O)C(=O)[O-].[Na+]` (stereo not drawn) [Monosodium n-decylsuccinate, reference compound], 26.32 millinewtons per meter. Same read-out and setting: to `CCCCCCCCC(CC(=O)O)C(=O)[O-].[Na+]` (stereo not drawn) [Monosodium n-octylsuccinate, reference compound] belongs 26.64 millinewtons per meter. As to Disodium n-dodecenylsuccinate, the surface tension in series [1] was found to be 25.8 millinewtons per meter. Moreover, in series [2], the “Bar Hardness” value is on record as 132. Moreover, the Reflectance in series [3] amounted to 87. Turning to Disodium n-tetradecenylsuccinate, the surface tension in series [1] was determined as 26 millinewtons per meter. For the same compound, the “Bar Hardness” value in series [2] came to 144. In addition, the Reflectance in series [3] was 74. Regarding “Monosodium n-dodecenylsuccinate [reference compound]”, the surface tension in series [1] is on record as 26.32 millinewtons per meter.

“Monosodium n-tetradecenylsuccinate [reference compound]” yielded a surface tension in series [1] of 26 millinewtons per meter.
